Measured values as given in ChEMBL document CHEMBL6134861 (J Med Chem, 2025).
Calls of active or inactive are those of the source. The calls are words filed in the database; no cut-off is given here. Where a SMILES comes first, the peptide text is derived from it. Bridges are numbered along the chain shown (N, C = ends). [ ]: non-standard residue; d: D form. ξ: configuration not given here. ξD = NC(CC(=O)O)C(=O)O

Legend:
Type in all cases: cell-based
[1] = Inhibition of rat alpha6/alpha3/beta2/beta3 nAChR expressed in Xenopus laevis oocytes assessed as inhibition of acetylcholine-induced current by two electrode voltage-clamp assay; conditions: Oocyte
[2] = Inhibition of rat alpha2/beta4 nAChR expressed in Xenopus laevis oocytes assessed as inhibition of acetylcholine-induced current by two electrode voltage-clamp assay; conditions: Oocyte
[3] = Inhibition of mouse alpha1/beta1/delta/epsilon nAChR expressed in Xenopus laevis oocytes assessed as inhibition of acetylcholine-induced current by two electrode voltage-clamp assay; conditions: Oocyte
[4] = biological target: Neuronal acetylcholine receptor; alpha3/beta4 (Homo sapiens) (UniProt P30926+P32297); experiment: Inhibition of human alpha3/beta4 nAChR expressed in Xenopus laevis oocytes at 10 uM; conditions: Oocyte
[5] = biological target: Neuronal acetylcholine receptor; alpha9/alpha10 (Homo sapiens) (UniProt Q9UGM1+Q9GZZ6); experiment: Inhibition of human alpha9/alpha10 nAChR expressed in Xenopus laevis oocytes at 10 uM; conditions: Oocyte
[6] = biological target: Nicotinic acetylcholine receptor alpha6/alpha3/beta4 (Homo sapiens) (UniProt P30926+P32297+Q15825); experiment: Inhibition of human alpha6/alpha3/beta4 nAChR expressed in Xenopus laevis oocytes at 10 uM; conditions: Oocyte
[7] = biological target: Neuronal acetylcholine receptor subunit alpha-7 (Rattus norvegicus) (UniProt Q05941); experiment: Inhibition of rat alpha7 nAChR expressed in Xenopus laevis oocytes assessed as inhibition of acetylcholine-induced current at 10 uM by two electrode voltage-clamp assay; conditions: Oocyte
[8] = biological target: Neuronal acetylcholine receptor; alpha2/beta4 (Homo sapiens) (UniProt P30926+Q15822); experiment: Inhibition of human alpha2/beta4 nAChR expressed in Xenopus laevis oocytes at 10 uM; conditions: Oocyte
Oocyte [9] = experiment: Inhibition of rat alpha2/beta4 nAChR expressed in Xenopus laevis oocytes assessed as inhibition of acetylcholine-induced current at 10 uM by two electrode voltage-clamp assay
[10] = biological target: Neuronal acetylcholine receptor subunit alpha-7 (Homo sapiens) (UniProt P36544); experiment: Inhibition of human alpha7 nAChR expressed in Xenopus laevis oocytes at 10 uM; conditions: Oocyte
[11] = biological target: Neuronal acetylcholine receptor; alpha3/beta4 (Rattus norvegicus) (UniProt P04757+P12392); experiment: Inhibition of rat alpha3/beta4 nAChR expressed in Xenopus laevis oocytes assessed as inhibition of acetylcholine-induced current at 10 uM by two electrode voltage-clamp assay; conditions: Oocyte
Oocyte [12] = experiment: Inhibition of human alpha6/alpha3/beta2/beta3 nAChR expressed in Xenopus laevis oocytes at 10 uM
[13] = biological target: Neuronal acetylcholine receptor; alpha4/beta2 (Homo sapiens) (UniProt P17787+P43681); experiment: Inhibition of human alpha4/beta2 nAChR expressed in Xenopus laevis oocytes at 10 uM; conditions: Oocyte
Oocyte [14] = experiment: Inhibition of mouse alpha1/beta1/delta/epsilon nAChR expressed in Xenopus laevis oocytes assessed as inhibition of acetylcholine-induced current at 10 uM by two electrode voltage-clamp assay
[15] = biological target: Neuronal acetylcholine receptor; alpha4/beta4 (Homo sapiens) (UniProt P30926+P43681); experiment: Inhibition of human alpha4/beta4 nAChR expressed in Xenopus laevis oocytes at 10 uM; conditions: Oocyte
[16] = biological target: T1, Neuronal acetylcholine receptor; alpha4/beta2 (Rattus norvegicus) (UniProt P09483+P12390); experiment: Inhibition of rat alpha4/beta4 nAChR expressed in Xenopus laevis oocytes assessed as inhibition of acetylcholine-induced current at 10 uM by two electrode voltage-clamp assay; conditions: Oocyte
[17] = biological target: Neuronal acetylcholine receptor; alpha2/beta2 (Rattus norvegicus) (UniProt P12389+P12390); experiment: Inhibition of rat alpha2/beta2 nAChR expressed in Xenopus laevis oocytes assessed as inhibition of acetylcholine-induced current at 10 uM by two electrode voltage-clamp assay; conditions: Oocyte
[18] = biological target: Nicotinic acetylcholine receptor alpha6/alpha3/beta4 (Rattus norvegicus) (UniProt P04757+P12392+P43143); experiment: Inhibition of rat alpha6/alpha3/beta4 nAChR expressed in Xenopus laevis oocytes assessed as inhibition of acetylcholine-induced current at 10 uM by two electrode voltage-clamp assay; conditions: Oocyte
Oocyte [19] = experiment: Inhibition of rat alpha6/alpha3/beta2/beta3 nAChR expressed in Xenopus laevis oocytes assessed as inhibition of acetylcholine-induced current at 10 uM by two electrode voltage-clamp assay
[20] = biological target: Neuronal acetylcholine receptor subunit alpha-7 (Rattus norvegicus) (UniProt Q05941); experiment: Inhibition of rat alpha7 nAChR expressed in Xenopus laevis oocytes assessed as inhibition of acetylcholine-induced current at 100 nM preincubated with compound for 1 hr followed by compound washout and measured for 20 mins by two electrode voltage-clamp assay; conditions: Oocyte
[21] = biological target: T1, Neuronal acetylcholine receptor; alpha4/beta2 (Rattus norvegicus); experiment: Inhibition of rat alpha4/beta2 nAChR expressed in Xenopus laevis oocytes assessed as inhibition of acetylcholine-induced current at 10 uM by two electrode voltage-clamp assay; conditions: Oocyte
[22] = biological target: Nicotinic acetylcholine receptor alpha9/alpha10 (Rattus norvegicus) (UniProt P43144+Q9JLB5); experiment: Inhibition of rat alpha9/alpha10 nAChR expressed in Xenopus laevis oocytes assessed as inhibition of acetylcholine-induced current at 10 uM by two electrode voltage-clamp assay; conditions: Oocyte
[23] = biological target: Neuronal acetylcholine receptor; alpha3/beta2 (Rattus norvegicus) (UniProt P04757+P12390); experiment: Inhibition of rat alpha3/beta2 nAChR expressed in Xenopus laevis oocytes assessed as inhibition of acetylcholine-induced current at 10 uM by two electrode voltage-clamp assay; conditions: Oocyte
[24] = biological target: Neuronal acetylcholine receptor; alpha3/beta2 (Homo sapiens) (UniProt P17787+P32297); experiment: Inhibition of human alpha3/beta2 nAChR expressed in Xenopus laevis oocytes at 10 uM; conditions: Oocyte
Oocyte [25] = experiment: Inhibition of human alpha2/beta2 nAChR expressed in Xenopus laevis oocytes at 10 uM

Sequence of Neuronal acetylcholine receptor subunit alpha-7 (Rattus norvegicus) (Q05941 whole entry): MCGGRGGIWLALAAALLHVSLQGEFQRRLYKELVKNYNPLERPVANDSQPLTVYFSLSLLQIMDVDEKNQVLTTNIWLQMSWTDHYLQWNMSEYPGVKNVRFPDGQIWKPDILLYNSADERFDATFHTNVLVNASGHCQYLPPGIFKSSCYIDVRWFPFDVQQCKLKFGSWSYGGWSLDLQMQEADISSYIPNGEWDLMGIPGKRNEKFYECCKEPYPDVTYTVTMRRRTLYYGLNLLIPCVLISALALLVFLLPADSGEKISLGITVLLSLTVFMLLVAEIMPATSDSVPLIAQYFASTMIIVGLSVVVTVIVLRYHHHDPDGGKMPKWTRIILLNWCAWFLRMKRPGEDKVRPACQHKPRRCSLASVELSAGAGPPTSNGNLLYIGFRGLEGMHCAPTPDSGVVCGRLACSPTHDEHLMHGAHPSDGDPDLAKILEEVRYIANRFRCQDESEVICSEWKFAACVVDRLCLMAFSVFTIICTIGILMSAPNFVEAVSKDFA
Sequence of Neuronal acetylcholine receptor subunit alpha-7 (Homo sapiens) (P36544 whole entry): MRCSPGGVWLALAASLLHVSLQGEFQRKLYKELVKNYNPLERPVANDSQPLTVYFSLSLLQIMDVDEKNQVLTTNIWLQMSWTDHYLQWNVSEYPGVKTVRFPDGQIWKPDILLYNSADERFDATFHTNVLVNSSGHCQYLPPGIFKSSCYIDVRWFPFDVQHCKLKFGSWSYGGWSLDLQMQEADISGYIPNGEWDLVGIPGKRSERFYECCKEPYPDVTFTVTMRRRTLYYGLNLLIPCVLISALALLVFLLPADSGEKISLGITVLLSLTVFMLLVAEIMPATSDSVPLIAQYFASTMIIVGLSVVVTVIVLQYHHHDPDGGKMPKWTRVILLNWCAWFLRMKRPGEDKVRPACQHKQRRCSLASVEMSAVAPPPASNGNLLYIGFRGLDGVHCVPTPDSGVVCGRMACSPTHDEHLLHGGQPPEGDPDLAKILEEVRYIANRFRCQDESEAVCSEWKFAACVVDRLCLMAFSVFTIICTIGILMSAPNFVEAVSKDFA

SMILES: CC[C@H](C)[C@@H]1NC(=O)[C@H](CC(=O)O)NC(=O)[C@@H]2CCCN2C(=O)[C@H](CC(N)=O)NC(=O)[C@H](CCC(N)=O)NC(=O)[C@H](CC(C)C)NC(=O)[C@H]([C@@H](C)CC)NC(=O)[C@@H]2CSSC[C@H](NC(=O)C(N)CC(=O)O)C(=O)N[C@@H](CSSC[C@@H](C(N)=O)NC1=O)C(=O)N[C@@H](CO)C(=O)N[C@@H](C)C(=O)N1CCC[C@H]1C(=O)N1CCC[C@H]1C(=O)N2 (stereo not given in full) (H-[ξD]CCSAPPCILQNPDIC-NH2; disulfide 2-8, 3-16)
- IC50 [1]: 0.112 µM
- IC50 [2]: > 10 µM
- IC50 [3]: > 10 µM

SMILES: CC[C@H](C)[C@@H]1NC(=O)[C@H](CC(=O)O)NC(=O)[C@@H]2CCCN2C(=O)[C@H](CC(N)=O)NC(=O)[C@H](CCC(N)=O)NC(=O)[C@H](CC(C)C)NC(=O)[C@H]([C@@H](C)CC)NC(=O)[C@@H]2CSSC[C@H](NC(=O)[C@@H](N)CC(=O)O)C(=O)N[C@@H](CSSC[C@@H](C(N)=O)NC1=O)C(=O)N[C@@H](CO)C(=O)N[C@@H](CCC(=O)O)C(=O)N1CCC[C@H]1C(=O)N1CCC[C@H]1C(=O)N2 (H-DCCSEPPCILQNPDIC-NH2; disulfide 2-8, 3-16)
- inhibition [4]: inactive
- inhibition [5]: inactive
- inhibition [6]: inactive
- inhibition [7]: inactive
- inhibition [8]: inactive
- inhibition (Oocyte [9]): inactive
- inhibition [10]: inactive
- inhibition [11]: inactive
- inhibition (Oocyte [12]): inactive
- inhibition [13]: inactive
- inhibition (Oocyte [14]): inactive
- inhibition [15]: inactive
- inhibition [16]: inactive
- inhibition [17]: inactive
- inhibition [18]: inactive
- inhibition (Oocyte [19]): inactive
- inhibition [20]: inactive
- inhibition [21]: inactive
- inhibition [22]: inactive
- inhibition [23]: inactive
- inhibition [24]: inactive
- inhibition (Oocyte [25]): inactive
